# Literature values, collected in US20080132413A1, “Methods for the Improvement of Plant Tolerance Towards Glyphosate” (Bayer Cropscience AG, priority 2004, published 2008).
# System: glyphosate-resistant cotton (Roundup Ready Cotton)
smiles,measurement,setting,value
O=[N+]([O-])/N=C1\NCCN1Cc1ccc(Cl)nc1 [imidacloprid],increase in buds compared to a control not treated with imidacloprid,"glyphosate treatment at the 4 leaf stage, after 45 days",18%
same,sum of the counts of buds and bolls versus untreated control,"glyphosate treatment at the 4 leaf stage, after 62 days",matched that of the untreated control
same,minus of buds compared to the control not treated with imidacloprid,"glyphosate treatment at the 6 leaf stage, after 40 days",14%
same,sum of the counts of buds and bolls (yield) greater than that of the untreated control,"glyphosate treatment at the 6 leaf stage, after 57 days",about 14%
